Reference: US20040005537A1, “Method of identifying toxic agents using differential gene expression” (priority 2000, published 2004)

What was measured:
rat heart tissue = experiment: GENECALLING differential gene expression analysis after dosing of serotonin modulating agents; assay type: in vivo, Sprague Dawley rats
Summary of the method: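 GENECALLING profiling of cDNA from total RNA, keeping gene fragments modulated beyond ±1.5-fold. Tissue collected 24 h after final dosing of serotonin modulating agents; control rats received sterile water or canola oil.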

[1] = grouping used to generate the distinguishing gene profiles; cited from earlier work

CNCCC(Oc1ccc(C(F)(F)F)cc1)c1ccccc1 (stereo not shown) [fluoxetine]
Effects on Transcription Level: Novel gene fragment, 535 bp, 90% SI to mouse slow/cardiac troponin C [M29793] (rat heart tissue; CARDIOTOX 71): −2.0 fold
Effects on Transcription Level: Novel gene fragment, 445 bp, 85% SI to human skeletal muscle alpha 2 actinin [M86406] (rat heart tissue; CARDIOTOX 72): −1.6 fold
Effects on Transcription Level: Novel gene fragment, 246 bp, 89% SI to mouse ponsin-1 [AF078667] (rat heart tissue; CARDIOTOX 73): −2.5 fold
Effects on Transcription Level: Novel gene fragment, 126 bp, 77% SI to human DNA sequence from cosmid V311G7, between markers DXS366 and DXS87 on chromosome X [Z69304] (rat heart tissue; CARDIOTOX 74): +2.0 fold
Effects on Transcription Level: Novel gene fragment, 370 bp (rat heart tissue; CARDIOTOX 75): −1.9 fold
Effects on Transcription Level: Novel gene fragment, 337 bp, 78% SI to novel human protein AHNAK [M80899] (rat heart tissue; CARDIOTOX 76): −2.5 fold
Effects on Transcription Level: Novel gene fragment, 100 bp, 93% SI to human KIAA0750 protein [ABO18293] (rat heart tissue; CARDIOTOX 77): −7.6 fold
Effects on Transcription Level: Novel gene fragment, 44 bp (rat heart tissue; CARDIOTOX 78): −5.6 fold
Effects on Transcription Level: Novel gene fragment, 698 bp, 93% SI to mouse plenty-of-prolines-101 [AF062655] (rat heart tissue; CARDIOTOX 79): −2.3 fold
Effects on Transcription Level: Novel gene fragment, 660 bp, 84% SI to mouse membrane protein TMS-2 [AF181685] (rat heart tissue; CARDIOTOX 80): −4.1 fold
Effects on Transcription Level: Novel gene fragment, 115 bp (rat heart tissue; CARDIOTOX 81): −8.1 fold
Effects on Transcription Level: Novel gene fragment, 294 bp, 95% SI to mouse Ndr1 related protein Ndr2 [AB033921] (rat heart tissue; CARDIOTOX 82): −2.5 fold
Effects on Transcription Level: Novel gene fragment, 198 bp (rat heart tissue; CARDIOTOX 83): +2.5 fold
Effects on Transcription Level: Novel gene fragment, 730 bp, 86% SI to mouse E800 [Y10968] (rat heart tissue; CARDIOTOX 84): −1.8 fold
Effects on Transcription Level: Novel gene fragment, 294 bp, 98% SI to cysteine conjugate beta-lyase [S61960] (rat heart tissue; CARDIOTOX 85): −1.8 fold
Effects on Transcription Level: Aconitase (rat heart tissue; CARDIOTOX 86, GenBank A1243266): −3.9 fold
Effects on Transcription Level: Ribosomal protein L7 (rat heart tissue; CARDIOTOX 87, GenBank M17422): +2.7 fold
Effects on Transcription Level: Ribosomal protein L9 (rat heart tissue; CARDIOTOX 88, GenBank X51706): +6.0 fold
Effects on Transcription Level: Ribosomal protein L12 (rat heart tissue; CARDIOTOX 89, GenBank X53504): −2.2 fold
Effects on Transcription Level: 18S, 5.8S, and 28S ribosomal RNA's (rat heart tissue; CARDIOTOX 90, GenBank V01270): +7 fold
Effects on Transcription Level: Pyruvate dehydrogenase kinase 2 (PDK2) (rat heart tissue; CARDIOTOX 91, GenBank U10357): −11.3 fold
Effects on Transcription Level: D-Binding Protein (DBP) (rat heart tissue; CARDIOTOX 92, GenBank J03179): −1.5 fold
Effects on Transcription Level: Lipoprotein lipase (rat heart tissue; CARDIOTOX 93, GenBank L03294): −3.7 fold
Effects on Transcription Level: Non-neuronal enolase (rat heart tissue; CARDIOTOX 94, GenBank X02610): +3.1 fold
Effects on Transcription Level: Glycogen phosphorylase (muscle isozyme) (rat heart tissue; CARDIOTOX 95, GenBank L10669): −3.0 fold
Effects on Transcription Level: Cytochrome c oxidase subunit IV (rat heart tissue; CARDIOTOX 96, GenBank X14209): +8.0 fold
Effects on Transcription Level: Alpha-globin (rat heart tissue; CARDIOTOX 97, GenBank M17083): +2.9 fold
Effects on Transcription Level: Beta-globin (rat heart tissue; CARDIOTOX 98, GenBank X06701): +4.0 fold
Effects on Transcription Level: Myoglobin (rat heart tissue; CARDIOTOX 99, GenBank AF197916): +2.2 fold
Effects on Transcription Level: Titin (rat heart tissue; CARDIOTOX 100, GenBank L38717): +1.6 fold
Effects on Transcription Level: Skeletal muscle actin (rat heart tissue; CARDIOTOX 101, GenBank V01218): −13.1 fold
Effects on Transcription Level: Myosin light chain 2 (MLC2) (rat heart tissue; CARDIOTOX 102, GenBank M11851): +3.6 fold
Effects on Transcription Level: Alpha cardiac myosin heavy chain (rat heart tissue; CARDIOTOX 103, GenBank X15938): −4.8 fold
Effects on Transcription Level: Troponin I (rat heart tissue; CARDIOTOX 104, GenBank U77354): +1.6 fold
Effects on Transcription Level: Cardiac calsequestrin (rat heart tissue; CARDIOTOX 105, GenBank AF001334): −2.4 fold
Effects on Transcription Level: Sulfated glycoprotein 2 (rat heart tissue; CARDIOTOX 106, GenBank M16975): −2.2 fold
Effects on Transcription Level: Aquaporin 7 (rat heart tissue; CARDIOTOX 107, GenBank AB000507): +1.8 fold
Effects on Transcription Level: Carnitine/acylcarnitine carrier protein (rat heart tissue; CARDIOTOX 108, GenBank X97831): −2.6 fold
Effects on Transcription Level: Glu-Pro Dipeptide Repeat (rat heart tissue; CARDIOTOX 109, GenBank U40628): −3.1 fold
Effects on Transcription Level: Cystatin beta (rat heart tissue; CARDIOTOX 110, GenBank X54737): +2.5 fold
Effects on Transcription Level: Novel gene fragment, 593 bp, 90% SI to human calcineurin B-like protein [Z08983] (rat heart tissue; CARDIOTOX 111): +2.1 fold
Effects on Transcription Level: Novel gene fragment, 179 bp, 88% SI to human titin [X90568] (rat heart tissue; CARDIOTOX 112): −1.8 fold
Effects on Transcription Level: Novel gene fragment, 700 bp, 91% SI to mouse periplakin (PPL) [AF116523] (rat heart tissue; CARDIOTOX 113): +2.1 fold
Effects on Transcription Level: Long chain acyl-CoA dehydrogenase (LCAD) (rat heart tissue; CARDIOTOX 114, GenBank J05029): +1.6 fold
Effects on Transcription Level: Sulfated glycoprotein 1 (SGP-1) (rat heart tissue; CARDIOTOX 115, GenBank M19936): −2.1 fold
Effects on Transcription Level: Catalase (rat heart tissue; CARDIOTOX 116, GenBank M11670): +1.9 fold
Effects on Transcription Level: Alpha-fodrin (A2A) (Nonerythroid spectrin alpha subunit) (rat heart tissue; CARDIOTOX 117, GenBank AF084186): −1.6 fold
Effects on Transcription Level: Cardiac specific sodium channel alpha-subunit (rat heart tissue; CARDIOTOX 118, GenBank M27902): −2.1 fold
Effects on Transcription Level: Glu-Pro Dipeptide Repeat (rat heart tissue; CARDIOTOX 119, GenBank U40628): +2.7 fold
Effects on Transcription Level: Novel gene fragment, 200 bp, 64% SI to human KIAA0733 protein [AB018316] (rat heart tissue; CARDIOTOX 120): −1.6 fold
Effects on Transcription Level: RNA polymerase II transcription factor SIII (p18 subunit) (rat heart tissue; CARDIOTOX 121, GenBank L42855): +1.8 fold
Effects on Transcription Level: Protein-tyrosine phosphalase (LRP) (rat heart tissue; CARDIOTOX 122, GenBank L01702): +1.5 fold
Effects on Transcription Level: Skeletal muscle selenoprotein W (SelW) (rat heart tissue; CARDIOTOX 123, GenBank U25264): −1.6 fold
Effects on Transcription Level: Sarcoplasmic reticulum 2+-Ca-ATPase (rat heart tissue; CARDIOTOX 124, GenBank X15635): −1.8 fold
Effects on Transcription Level: Ribosomal protein S7 (rat heart tissue; CARDIOTOX 125, GenBank X53377): +1.3 fold
Effects on Transcription Level: Ribophorin I (rat heart tissue; CARDIOTOX 126, GenBank X05300): +1.4 fold
Effects on Transcription Level: Beta cardiac myosin heavy chain (rat heart tissue; CARDIOTOX 127, GenBank X15939): +1.4 fold
Effects on Transcription Level: ADP-ribosylation factor 1 (rat heart tissue; CARDIOTOX 128, GenBank L12380): −1.0 fold
Effects on Transcription Level: Laminin receptor (rat heart tissue; CARDIOTOX 129, GenBank U04942): −1.5 fold
Effects on Transcription Level: Novel gene fragment, 206 bp, 89% SI to human seryl-tRNA synthetase [X91257] (rat heart tissue; CARDIOTOX 130): +1.7 fold
Effects on Transcription Level: Annexin VI (rat heart tissue; CARDIOTOX 131, GenBank X86086): +1.3 fold
Effects on Transcription Level: Novel gene fragment, 325 bp, 90% SI to mouse N-RAP [U76618] (rat heart tissue; CARDIOTOX 132): +1.4 fold
Effects on Transcription Level: Novel gene fragment, 61 bp (CARDIOTOX 134) (rat heart tissue; LD10 dose for three days): −1.2 fold
Effects on Transcription Level: Novel gene fragment, 337 bp (CARDIOTOX 133) (rat heart tissue; LD10 dose for three days): +1.0 fold
Effects on Transcription Level: Novel gene fragment, 378 bp, 88% SI to human coatomer protein (COPA) [U24105] (CARDIOTOX 138) (rat heart tissue; LD10 dose for three days): −1.1 fold
Effects on Transcription Level: Long chain 3-ketoacyl-CoA thiolase (CARDIOTOX 136) (rat heart tissue; LD10 dose for three days, GenBank D16479): −1.1 fold
Effects on Transcription Level: TATA-binding protein interacting protein 120 (TIP120) (CARDIOTOX 135) (rat heart tissue; LD10 dose for three days, GenBank D87671): +1.4 fold
Effects on Transcription Level: Serine protease (CARDIOTOX 139) (rat heart tissue; LD10 dose for three days, GenBank D88250): +1.5 fold
Effects on Transcription Level: Thymosin beta-4 (CARDIOTOX 137) (rat heart tissue; LD10 dose for three days, GenBank M34043): +1.4 fold
classification as cardiotoxic or noncardiotoxic serotonin modulating agent [1]: noncardiotoxic
